The values below come from patent US11382902B2, “Treatment of cancer by stimulation of IL-12 production” (Macrophage Pharma Limited, priority 2017, dated 2022).

Structures are written as SMILES.

For assay [1], the system named is IFN-γ production in PBMCs stimulated with LPS. In words: Stimulation of IFN-γ in human PBMCs stimulated with LPS (ELISA / multiplex immunoassay). The assay is classed as cell-based. The conditions noted are these: LPS 1 μg/mL, 72 hrs culture. Here is the method: (§1) Human PBMCs from six healthy donors were isolated from whole blood. PBMCs were resuspended in RPMI-10 at 1×10^6/mL and plated at a density of 2×10^5 per well (200 μL) in 96-well round bottom culture plates. Treatments or reference controls at different concentrations were prepared in DMSO according to client/supplier instruction and added directly to wells at a final volume of 0.2 μL per well (1:1000). After 2 hours, LPS was added to the culture (1 μg/mL final, 10 μL per well). Cells were cultured for 72 hrs at 37° C. and 5% CO2. Cell-free supernatants were collected at the end of culture period, transferred to new 96-well plates and frozen at −80° C. prior to assessment of IFN-γ, IL-10, IL-12p70 and TNF-α by ELISA and multiplex immunoassay.
(§2) Cultures were performed in triplicate to provide technical replicates and PBMCs from six healthy donors were included to provide biological replication.
(§3) All test and reference substances were formulated at 10 mM stock concentration in anhydrous DMSO, filtered and frozen in aliquots. Immediately prior to addition to assay, stock solutions were diluted in DMSO to prepare solutions at 1000 times the final required concentration. All final formulations were freshly prepared and kept sterile and light protected prior to the addition in cultures.
(§4) ELISA plates were read at 450 nm using an Infinite F50 (Tecan) absorbance reader and Magellan™ reader control and data analysis software. Multiplex immunoassays were read using a Luminex MAGPIX multiplexing system and ProcartaPlex Analyst 1.0 software. Graphs were prepared using Graphpad Prism (v6.0). Data were normalised to mean of respective vehicle control group (100%) within each biological replicate to account for donor variation.
Background: ELISA stands for enzyme-linked immunosorbent assay.

For assay [2], the system named is IL10 production in PBMCs stimulated with LPS. Nature of the assay: Inhibition of IL10 in human PBMCs stimulated with LPS (ELISA / multiplex immunoassay). The assay is classed as cell-based. To be noted: for IC50: PBMC, human PBMCs, LPS 1 μg/mL, 72 hrs culture, read-out: Inhibition of IL10 in PBMC's stimulated with LPS IC50. The procedure:
as §1, §2, §3, §4

For assay [3], the system named is IL-12p70 production in PBMCs stimulated with LPS. Nature of the assay: Stimulation of IL-12p70 in human PBMCs stimulated with LPS (ELISA / multiplex immunoassay). The conditions noted are these: PBMC, LPS 1 μg/mL, 72 hrs culture, read-out: Stimulation of IL-12p70 in PBMC's stimulated with LPS EC50. In kind it is cell-based. The procedure: as §1, §2, §3, §4
The target of another assay is p38 MAPK (Homo sapiens, UniProt Q16539). Nature of the assay: Inhibition of p38 MAPK. In kind it is biochemical.
Chain of p38 MAPK (Q16539 whole entry): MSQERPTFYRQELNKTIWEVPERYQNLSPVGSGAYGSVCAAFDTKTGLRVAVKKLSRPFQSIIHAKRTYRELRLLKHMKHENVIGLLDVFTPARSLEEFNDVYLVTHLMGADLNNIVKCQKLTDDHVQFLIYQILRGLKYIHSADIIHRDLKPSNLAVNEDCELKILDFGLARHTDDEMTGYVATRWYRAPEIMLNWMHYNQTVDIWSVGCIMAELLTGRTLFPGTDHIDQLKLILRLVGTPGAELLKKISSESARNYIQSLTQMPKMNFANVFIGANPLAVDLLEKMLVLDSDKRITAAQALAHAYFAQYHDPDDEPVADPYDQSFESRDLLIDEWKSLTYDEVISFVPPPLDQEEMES
[4] abbreviates: versus 6-Amino-5-(2,4-difluorobenzoyl)-1-[2,6-difluorophenyl]pyridin-2(1H)-one and PH797804.

Regarding `CNC(=O)c1ccc(C)c(-n2c(C)cc(OCc3ccc(F)cc3F)c(Br)c2=O)c1` [PH797804, 3-[3-Bromo-4-[(2,4-difluorophenyl)methoxy]-6-methyl-2-oxo-1(2H)-pyridinyl]-N,4-dimethyl-benzamide], the “Stimulation of INF-γ in PBMCs stimulated with LPS EC50 (nM)” value in assay [1] is on record as “No stimulation”. Further, the IC50 in assay [2] stood at 10 nM. In assay [3], the EC50 was more than 300 nM.

Take `C[C@H](NCCc1cc(F)c(-n2c(N)c(C(=O)c3ccc(F)cc3F)ccc2=O)c(F)c1)C(=O)OC(C)(C)C` [tert-Butyl N-(2-{4-[6-amino-5-(2,4-difluorobenzoyl)-2-oxopyridin-1(2H)-yl]-3,5-difluorophenyl}ethyl)-L-alaninate]: the EC50 is 12 nM on p38 MAPK; 1 nM in assay [1] (PBMC, read-out: Stimulation of INF-γ in PBMCs stimulated with LPS EC50); less than 1 nM in assay [3]. Also, the “Fold less potent inhibitory activity against p38 MAPK than the reference inhibitors” value on p38 MAPK (setting [4]) is 10 fold. For the same molecule, the IC50 in assay [2] was less than 1 nM. Further, the “IL10 production inhibited at concentrations fold lower than conventional p38 MAPK inhibitors” value in assay [2] (setting [4]) is on record as “at least 10 fold”.

Consider `Nc1c(C(=O)c2ccc(F)cc2F)ccc(=O)n1-c1c(F)cccc1F` [6-Amino-5-(2,4-difluorobenzoyl)-1-[2,6-difluorophenyl]pyridin-2(1H)-one], for which the values for the EC50 (at p38 MAPK; in assay [3]) were less than 1 nM and more than 300 nM, respectively. Besides, the “Stimulation of INF-γ in PBMCs stimulated with LPS EC50 (nM)” value in assay [1] was “No stimulation”. In assay [2], the IC50 came out at 10 nM.

By IC50 is commonly meant the concentration that gives 50% inhibition. A word on the EC50: it is the concentration giving half of the maximal effect.
